The source of these data is patent US6479046B2, “Attractants and repellants for colorado potato beetle” (priority 2000, dated 2002).

One assay has as its system CPB. As to conditions: Schütz et al. (1997); cited from earlier work.
Assay [1] has as its system Colorado potato beetle (CPB) adults. In words: open Y-track olfactometer dual choice bioassay, adult beetles. Type of assay: in vivo, Leptinotarsa decemlineata. An excerpt:
Insects: Adult Colorado potato beetles (CPB) were obtained from a laboratory colony which was annually infused with feral insects. CPB were maintained on potato, S. tuberosum cultivar Kennebeck, for both larval and adult stages. Upon emergence, adults were sexed; individual insects were kept in plastic containers with fresh potato foliage and water until use six to 12 days post emergence. Prior to testing, CPB were starved for two to three hours. Experimental insects were used only once.
Odorous blends tested are described in Table 3.
Plant stimuli consisted of 4.8 g of leaves from mature plants that were mechanically-damaged using scissors to make incisions ca. 1 cm in length at ca. 1 cm intervals around the circumference of leaves. Foliage used in the study were, potato, S. tuberosum cultivar Kennebeck (Solanaceae); tomato, Lycopersicon esculentum Mill cultivar Pik Red (Solanaceae); and soybean, Glycines maxcultivar Williams (Leguminaceae).
Experimental protocol: Chemical blends and plant foliage were tested for behavioral activity in an open Y-track olfactometer modified after Visser et al. (Visser, J. H., et al., Proceedings of the Section Experimental and Applied Entomology of the Netherlands Entomological Society Amsterdam, 9: 41-46 (1998); and described in detail by Dickens (Dickens, J. C., Agricultural and Forest Entomology, 1: 47-54 (1999)). In brief, odorous stimuli emanating from synthetic blends on filter paper discs (2.5 cm dia., Whatman™ #1 filter paper) or mechanically-damaged plant foliage in Ehrlenmeyer flasks were delivered to either side of the device. For each blend, a total amount of 25 μl of neat chemicals were diluted in 1 ml of mineral oil (25 μg total chemicals/μl mineral oil). […]
Statistical analysesLaboratory bioassays were assessed for significant differences by the hypothesis on binomial proportions based on the standard normal approximation (Brase, C. H., et al., Understanding Statistics, D. C. Heath and Co., Lexington, Mass., XIV +489 pp. (1983)).

In the case of `C=CC(C)(O)CCC=C(C)C` (stereo not shown) [linalool], in the assay with CPB, the “attraction of CPB to leaves sprayed with paraffin solutions (in words)” value (shortened to “attraction of CPB to leaves sprayed”) is “attractive”.

For `C=CC(=C)CCC=C(C)C` [β-myrcene], the “attraction of CPB to leaves sprayed” value in the assay on CPB was “reduced attraction”.

On to `CCCCC/C=C\CCO` [(Z)-3-nonen-1-ol], for which the “attraction of CPB to leaves sprayed” value in the assay with CPB is reported as “reduced attraction”.

For the compound `COC(=O)c1ccccc1O` [XVI, methyl salicylate], the “behavioral response of CPB to treatment versus control (in words)” value in assay [1] is “unattractive”.

For the compound `CCCCCCCCC=O` [nonanal], the “attraction of CPB to leaves sprayed” value in the assay on CPB is on record as “reduced attraction”.

For the compound `CC/C=C\CCOC(C)=O` [XIV, (Z)-3-hexenyl acetate], in assay [1], the “behavioral response of CPB to treatment versus control (in words)” value was “unattractive”.

As for `C=CC(C)(O)CCC=C(C)C` (single isomer, unassigned; (+)) [XV, (+)-linalool], the “behavioral response of CPB to treatment versus control (in words)” value in assay [1] is “unattractive”.

On to `C=C1CC/C=C(\C)CC[C@@H]2[C@@H]1CC2(C)C` [β-caryophyllene], for which the “attraction of CPB to leaves sprayed” value in the assay with CPB is reported as “attractive”.

As for benzene methanol, in the assay on CPB, the “attraction of CPB to leaves sprayed” value is given as “attractive”.

Turning to `OCCc1ccccc1` [2-benzene-ethanol], the “attraction of CPB to leaves sprayed” value in the assay on CPB is on record as “attractive”.
